Values of other authors in patent publication US20090048334A1, “Sodium ascorbate solubilisate” (priority 2004, published 2009).

Conditions: for content of the agent in an aqueous solution: over an extended period of time

Row | added ascorbic acid present (aqueous ascorbic acid solution, after 30 days) | content of the agent in an aqueous solution | SMILES
1 | approximately 70% | – | O=C1O[C@H]([C@@H](O)CO)C(O)=C1O [ascorbic acid]
2 | – | remains constant | CCCCCCCCCCCCCCCC(=O)OC[C@H](O)[C@H]1OC(=O)C(O)=C1O [ascorbylpalmitate]
3 | – | remains constant | O=C1O[C@H]([C@@H](O)CO)C([O-])=C1OP(=O)([O-])[O-].[Na+].[Na+].[Na+] [sodium ascorbic phosphate]
